Type in all cases: cell-based
Assay [1] relates to HTT mRNA alternative junction (AJ). The assay is described as follows: Splicing RT-qPCR assay, increase of HTT alternative junction (AJ) mRNA. The following applies: A673 or K562 cells, 24 hours compound treatment, concentration having 50% response in AJ increase. As for the experimental part: (§1) Compounds described herein were used to modulate RNA transcript abundance in cells. The expression of a target mRNA was measured by detecting the formation of an exon-exon junction in the canonical transcript (CJ). A compound mediated exon-inclusion event was detected by observing an increase in formation of a new junction with an alternative exon (AJ). Real-time qPCR assays were used to detect these splicing switches and interrogate the potency of various compounds towards different target genes. A high-throughput real time quantitative PCR (RT-qPCR) assay was developed to measure these two isoforms of the mRNA (CJ and AJ) for an exemplary gene, HTT, together with a control housekeeping gene, GAPDH or GUSB or PPIA, used for normalization. Briefly, the A673 or K562 cell line was treated with various compounds described herein (e.g., compounds of Formula (I)). After treatment, the levels of the HTT mRNA targets were determined from each sample of cell lysate by cDNA synthesis followed by qPCR.
(§2) The A673 cell line was cultured in DMEM with 10% FBS. Cells were diluted with full growth media and plated in a 96-well plate (15,000 cells in 100 ul media per well). The plate was incubated at 37° C. with 5% CO2 for 24 hours to allow cells to adhere. An 11-point 3-fold serial dilution of the compounds was made in DMSO then diluted in media in an intermediate plate. Compounds were transferred from the intermediate plate to the cell plate with the top dose at a final concentration of 10 uM in the well. Final DMSO concentration was kept at or below 0.25%. The cell plate was returned to the incubator at 37° C. with 5% CO2 for an additional 24 hours.
(§3) The K562 cell line was cultured in IMDM with 10% FBS. For K562, cells were diluted with full growth media and plated in either a 96-well plate (50,000 cells in 50 uL media per well) or a 384-well plate (8,000-40,000 cells in 45 uL media per well). An 11-point 3-fold serial dilution of the compounds were made in DMSO then diluted in media in an intermediate plate. Compound was transferred from the intermediate plate to the cell plate with the top dose at a final concentration of 10 uM in the well. Final DMSO concentration was kept at or below 0.25%. Final volume was 100 uL for 96-well plate and 50 uL for 384-well plate. The cell plate was then placed in an incubator at 37° C. with 5% CO2 for 24 hours.
(§4) The cells were then gently washed with 50 uL-100 uL cold PBS before proceeding to addition of lysis buffer. 30 uL-50 uL of room temperature lysis buffer with DNAse I (and optionally RNAsin) was added to each well. Cells were shaken/mixed thoroughly at room temperature for 5-10 minutes for lysis to take place and then 3 uL-5 uL of room temperature stop solution was added and wells were shaken/mixed again. After 2-5 minutes, the cell lysate plate was transferred to ice for RT-qPCR reaction setup. The lysates could also be frozen at −80° C. for later use.
(§5) In some cases, a direct lysis buffer was used. An appropriate volume of 3× lysis buffer (10 mM Tris, 150 mM NaCl, 1.5%-2.5% Igepal and 0.1-1 U/uL RNAsin, pH 7.4) was directly added to either K562 or A673 cells in media and mixed by pipetting 3 times. The plates were then incubated at room temperature with shaking/rocking for 20-50 minutes to allow for lysis to take place. After this time, the cell lysate plate was transferred to ice to set up for the RT-qPCR reactions. The lysates could also be frozen at −80° C. for later use.
(§6) To set up 10 uL RT-qPCR reactions, cell lysates were transferred to 384-well qPCR plates containing the master mix according to the table below. The plates were sealed, gently vortexed, and spun down before the run. The volumes were adjusted accordingly in some instances where the reaction was carried in 20 uL. The table below summarizes the components of the RT-qPCR reactions:
(§7) The RT-qPCR reaction was performed using a QuantStudio (ThermoFisher) under the following fast cycling conditions. […]
(In general: In qPCR the cycle at which signal appears reflects the starting amount.)

In assay [2] the test system is Target C CJ mRNA. The assay is described as follows: Gene panel canonical junction qPCR assay, Target C. As to conditions: protocol of Example 42, read-out: Target C IC50 (decrease in CJ mRNA levels). The protocol: as §1, §2, §3
(§8) The data analysis was performed by first determining the ACt vs the housekeeper gene. This ACt was then normalized against the DMSO control (AACt) and converted to RQ (relative quantification) using the 2^(−ΔΔCt) equation. The RQ were then converted to a percentage response by arbitrarily setting an assay window of 3.5 ΔCt for HTT-CJ and an assay window of 9 ΔCt for HTT-AJ. […] The percentage response was then fitted to the 4 parametric logistic equation to evaluate the concentration dependence of compound treatment. The increase in AJ mRNA is reported as AC50 (compound concentration having 50% response in AJ increase) while the decrease in CJ mRNA levels is reported as IC50 (compound concentration having 50% response in CJ decrease).
(§9) Additional studies were carried out for a larger panel of genes using the protocol provided above. The junction between flanking upstream and downstream exons was used to design canonical junction qPCR assays. At least one of the forward primer, reverse primer or the CY5-labeled 5′ nuclease probe (with 3′ quencher such as ZEN/Iowa Black FQ) was designed to overlap with the exon junction to capture the CJ mRNA transcript. BLAST was used to confirm the specificity of the probeset and parameters such as melting temperature, GC content, amplicon size, and primer dimer formation are considered during their design. Data for the decrease in CJ mRNA levels for three exemplary genes (HTT, SMN2, and Target C) analyzed in this panel are reported as IC50 (compound concentration having 50% response in CJ decrease).

For assay [3], the system named is SMN2 CJ mRNA. The assay is described as follows: Gene panel canonical junction qPCR assay, SMN2. As to conditions: protocol of Example 42, read-out: SMN2 IC50 (decrease in CJ mRNA levels). As for the experimental part: as §1, §2, §3, §8, §9
Assay [4] deals with HTT CJ mRNA. As to the kind of experiment: Gene panel canonical junction qPCR assay, HTT. As to conditions: protocol of Example 42, read-out: HTT IC50 (decrease in CJ mRNA levels). The protocol: as §1, §2, §3, §8, §9
The test system of assay [5] is HTT mRNA canonical junction (CJ). The assay is described as follows: Splicing RT-qPCR assay, decrease of HTT canonical junction (CJ) mRNA. As to conditions: A673 or K562 cells, 24 hours compound treatment, concentration having 50% response in CJ decrease. The protocol: as §1, §2, §3, §4, §5, §6, §7

One may read the AC50 as the concentration giving half of the maximal activity seen. A high value points to activity only at high concentration. Usually IC50 stands for the midpoint of a concentration-inhibition curve. For the compound `Cc1cn2cc(NC(=O)c3ccc(N4CCC(N5CCCC5)C4)c4cc(C)oc34)cc(F)c2n1` (centres unmarked) [Compound 204, 4-[[1,3′-bipyrrolidin]-1′-yl]-N-[8-fluoro-2-methylimidazo[1,2-a]pyridin-6-yl]-2-methyl-1-benzofuran-7-carboxamide], the AC50 in assay [1] and in assay [5] was 1000 to 10000 nM each time. Besides, the values for the IC50 in assay [2], in assay [3] and in assay [4] were 1000 to 10000 nM, under 100 nM and 1000 to 10000 nM, respectively.

For `Cc1cn2cc(NC(=O)c3ccc(N4CC5(CNC5)C4)c4cc(C)oc34)cc(F)c2n1` [Compound 205], the AC50 in assay [1] lay within 1000 to 10000 nM; in assay [5] it was 100 to 1000 nM. Further, the IC50 in assay [2] is 1000 to 10000 nM; in assay [3], under 100 nM; in assay [4], 100 to 1000 nM.

Turning to `Cc1cn2cc(NC(=O)c3ccc(N4CC5(CN(C)C5)C4)c4cc(C)oc34)cc(F)c2n1` [Compound 206], the AC50 in assay [1] and in assay [5] was 1000 to 10000 nM in each case. For the same compound, the results for the IC50 in assay [2], in assay [3] and in assay [4] were over 10000 nM, under 100 nM and 1000 to 10000 nM, respectively.

As to `Cc1cn2cc(NC(=O)c3ccc(N4CCN(C)CC4)c4cn(C)nc34)cc(F)c2n1` [Compound 207], the AC50 in assay [1] and in assay [5] was 100 to 1000 nM throughout. Besides, the IC50 was 1000 to 10000 nM in assay [2], under 100 nM in assay [3] and 100 to 1000 nM in assay [4].

Regarding `Cc1cn2cc(NC(=O)c3ccc(C4CCNCC4)c4cn(C)nc34)cc(F)c2n1` [Compound 208, N-[8-fluoro-2-methylimidazo[1,2-a]pyridin-6-yl]-2-methyl-4-(piperidin-4-yl)indazole-7-carboxamide], the AC50 in assay [1] and in assay [5] was 100 to 1000 nM each time. Further, the IC50 in assay [2] was 1000 to 10000 nM; in assay [3] it was under 100 nM; in assay [4], 100 to 1000 nM.

Turning to `Cc1cn2cc(NC(=O)c3ccc(C4CCN(C)CC4)c4cn(C)nc34)cc(F)c2n1` [Compound 209, N-[8-fluoro-2-methylimidazo[1,2-a]pyridin-6-yl]-2-methyl-4-(1-methylpiperidin-4-yl)indazole-7-carboxamide], the AC50 in assay [1] and in assay [5] was 100 to 1000 nM throughout. For the same compound, the results for the IC50 in assay [2], in assay [3] and in assay [4] were 1000 to 10000 nM, over 10000 nM and 100 to 1000 nM, respectively.

On to `CCN1CCC(c2ccc(C(=O)Nc3cc(F)c4nc(C)cn4c3)c3nn(C)cc23)CC1` [Compound 210, 4-(1-ethylpiperidin-4-yl)-N-[8-fluoro-2-methylimidazo[1,2-a]pyridin-6-yl]-2-methylindazole-7-carboxamide], for which the AC50 in assay [1] and in assay [5] was 100 to 1000 nM throughout. Besides, the IC50 in assay [2] was 1000 to 10000 nM; in assay [3] it was under 100 nM; in assay [4], 100 to 1000 nM.

For `Cc1cn2cc(NC(=O)c3ccc(C4C[C@@H](C)N[C@@H](C)C4)c4cn(C)nc34)cc(F)c2n1` (stereo partly drawn) [Compound 211, 4-[(cis-)-2,6-dimethylpiperidin-4-yl]-N-[8-fluoro-2-methylimidazo[1,2-a]pyridin-6-yl]-2-methylindazole-7-carboxamide trifluoroacetic acid], the AC50 in assay [1] and in assay [5] was 1000 to 10000 nM throughout. For the same compound, the concentration for half-maximal inhibition (IC50) in assay [2] is over 10000 nM; in assay [3], under 100 nM; in assay [4], 1000 to 10000 nM.

Regarding `Cc1cn2cc(NC(=O)c3ccc(C4CC(C)(C)NC(C)(C)C4)c4cn(C)nc34)cc(F)c2n1` [Compound 212, N-[8-fluoro-2-methylimidazo[1,2-a]pyridin-6-yl]-2-methyl-4-(2,2,6,6-tetramethylpiperidin-4-yl)indazole-7-carboxamide], the figures for the AC50 in assay [1] and in assay [5] were over 10000 nM and 1000 to 10000 nM, respectively. Also, the IC50 in assay [2] was over 10000 nM; in assay [3], 100 to 1000 nM; in assay [4] it was 1000 to 10000 nM.

With `Cc1cc2c(N3CCNCC3)ccc(C(=O)Nc3cc(F)c4cn(C)nc4c3)c2o1` [Compound 217, N-(4-fluoro-2-methylindazol-6-yl)-2-methyl-4-(piperazin-1-yl)-1-benzofuran-7-carboxamide], the AC50 in assay [1] and in assay [5] was 1000 to 10000 nM each time. The IC50 in assay [2] is over 10000 nM; in assay [3] it was 1000 to 10000 nM; in assay [4], 1000 to 10000 nM.

For the compound `Cc1cn2cc(NC(=O)c3ccc(N4CCNC(C)C4)c4cn(C)nc34)cc(F)c2n1` (centres unmarked) [Compound 228], the AC50 in assay [1] and in assay [5] was 100 to 1000 nM in each case. Also, the IC50 is 100 to 1000 nM in assay [2], under 100 nM in assay [3] and 100 to 1000 nM in assay [4].

On to `Cc1cn2cc(NC(=O)c3ccc(N4CCN(C)C(C)C4)c4cn(C)nc34)cc(F)c2n1` (centres unmarked) [Compound 229], for which the AC50 in assay [1] and in assay [5] was 100 to 1000 nM each time. Besides, the IC50 was 1000 to 10000 nM in assay [2], under 100 nM in assay [3] and 100 to 1000 nM in assay [4].

Turning to `Cn1cc2ccc(NC(=O)c3ccc(N4CCNCC4)c4cn(C)nc34)cc2n1` [Compound 230], the AC50 in assay [1] and in assay [5] was over 10000 nM in each case. For the same compound, the IC50 in assay [2], in assay [3] and in assay [4] was over 10000 nM throughout.

Consider `Cn1cc2c(F)cc(NC(=O)c3ccc(N4CCNCC4)c4cn(C)nc34)cc2n1` [Compound 231], for which the AC50 in assay [1] and in assay [5] was over 10000 nM in each case. Besides, the IC50 in assay [2], in assay [3] and in assay [4] was over 10000 nM each time.

For the compound `Cc1nc2c(F)cc(NC(=O)c3ccc(N4CCNCC4)c4cn(C)nc34)cc2o1` [Compound 234], the AC50 lay within 100 to 1000 nM in assay [1] and 1000 to 10000 nM in assay [5]. The IC50 in assay [2] was 1000 to 10000 nM; in assay [3], under 100 nM; in assay [4] it was 1000 to 10000 nM.

On to `Cc1nc2c(F)cc(NC(=O)c3ccc(N4CCNCC4)c4cn(C)nc34)cc2s1` [Compound 235], for which the AC50 in assay [1] and in assay [5] was 1000 to 10000 nM throughout. Further, the figures for the IC50 in assay [2], in assay [3] and in assay [4] were over 10000 nM, under 100 nM and 1000 to 10000 nM, respectively.

These data come from US20230365566A1, “HETEROCYCLIC AMIDES AND THEIR USE FOR MODULATING SPLICING” (REMIX THERAPEUTICS INC., priority 2020, published 2023).
